Results on 19 compounds are retold here after US12552799B2, “Triazolone compounds” (Nxera Pharma UK Limited, priority 2020, dated 2026).

The target of test [1] is human adenosine A2A receptor (Homo sapiens (Human), UniProt P29274). The test can be described thus: Adenosine receptor binding assay, A2A ([3H]ZM241385 inhibition binding on HEK293 membranes). To be noted: 1 nM [3H]ZM241385, 25° C., 1 h; Ki from IC50 by Cheng-Prusoff. Here is the method: (§1) Inhibition binding assays were performed using 0.2 μg of membranes prepared from HEK293 cells infected with BacMam human adenosine A2A receptor or 1.4 μg of membranes prepared from HEK293 cells infected with BacMam human adenosine A1 receptor. Membranes were incubated in 50 mM Tris-HCl (HEK293-hA2A; pH 7.4) or 50 mM Tris-HCl, 100 mM NaCl, 10 mM MgCl2 (CHO-hA1; pH 7.4) in the presence of varying concentrations of test compound and 1 nM [^3H]ZM241385 (HEK293-hA2A) or [^3H]DPCPX (CHO-hA1) at 25° C. for 1 h. The assay was then terminated by rapid filtration onto GF/B grade Unifilter plates using a TomTec cell harvester, followed by 5×0.5 ml washes with ddH2O. Nonspecific binding was defined in the presence of 1 μM CGS15943 (HEK293-hA2A) or 1 μM DPCPX (CHO-hA1). Bound radioactivity was determined by liquid scintillation counting and inhibition curves were analysed using a four-parameter logistic equation. IC50 values were converted to Ki values with the Cheng-Prusoff equation using a KD value derived from saturation binding studies.

In test [2] the target is human adenosine A1 receptor (Homo sapiens (Human), UniProt P30542). Briefly: Adenosine receptor binding assay, A1 ([3H]DPCPX inhibition binding on membranes). To be noted: 1 nM [3H]DPCPX, 25° C., 1 h; Ki from IC50 by Cheng-Prusoff. Here is the method: as §1
The target of the next test is human CB1 receptor (Homo sapiens (Human), UniProt P21554). The test can be described thus: CB1 receptor antagonism, agonist-induced cAMP modulation (HTRF) in transfected CHO cells. To be noted: inhibition of control response to 3 nM CP 55940, cAMP HTRF, read-out: Antag IC50. The format is cell-based. The method, then: Receptor antagonism: Evaluation of the antagonist activity of compounds at the human CB1 receptor expressed in transfected CHO cells, determined by measuring their effects on agonist-induced cAMP modulation using the HTRF detection method.
The cells are suspended in HBSS buffer (Invitrogen) complemented with 20 mM HEPES (pH 7.4), then distributed in microplates at a density of 5.10^3 cells/well and preincubated for 5 min at room temperature in the presence of either of the following: HBSS (stimulated control), the reference antagonist AM 281 at 3 μM (basal control) or various concentrations (IC50 determination), or the test compounds.
Thereafter, the reference agonist CP 55940 and the adenylyl cyclase activator NKH 477 are added at respective final concentrations of 3 nM and 3 μM.
For basal control measurements, CP 55940 is omitted from the wells containing 3 μM AM 281.
Following 20 min incubation at 37° C., the cells are lysed and the fluorescence acceptor (D2-labeled cAMP) and fluorescence donor (anti-cAMP antibody labeled with europium cryptate) are added.
After 60 min at room temperature, the fluorescence transfer is measured at λex=337 nm and λem=620 and 665 nm using a microplate reader (Rubystar, BMG). The cAMP concentration is determined by dividing the signal measured at 665 nm by that measured at 620 nm (ratio).
The results are expressed as a percent inhibition of the control response to 3 nM CP 55940.
The standard reference antagonist is AM 281, which is tested in each experiment at several concentrations to generate a concentration-response curve from which its IC50 value is calculated.
(Time-resolved FRET reads energy transfer from a long-lived donor to a nearby acceptor.)

Sequence of human CB1 receptor (P21554 whole entry): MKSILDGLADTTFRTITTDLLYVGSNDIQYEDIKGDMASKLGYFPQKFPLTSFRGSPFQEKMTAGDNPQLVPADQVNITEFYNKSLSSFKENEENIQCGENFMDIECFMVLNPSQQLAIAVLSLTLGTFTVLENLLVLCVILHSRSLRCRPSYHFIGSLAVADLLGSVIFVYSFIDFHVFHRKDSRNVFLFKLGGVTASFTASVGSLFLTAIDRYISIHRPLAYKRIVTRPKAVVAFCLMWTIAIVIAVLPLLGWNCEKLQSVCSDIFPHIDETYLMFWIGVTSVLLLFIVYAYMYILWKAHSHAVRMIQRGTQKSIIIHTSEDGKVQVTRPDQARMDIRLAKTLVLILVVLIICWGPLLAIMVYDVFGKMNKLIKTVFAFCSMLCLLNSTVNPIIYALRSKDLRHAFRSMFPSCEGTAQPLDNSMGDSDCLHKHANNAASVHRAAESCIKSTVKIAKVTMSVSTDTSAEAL
Sequence of human adenosine A1 receptor (P30542 whole entry): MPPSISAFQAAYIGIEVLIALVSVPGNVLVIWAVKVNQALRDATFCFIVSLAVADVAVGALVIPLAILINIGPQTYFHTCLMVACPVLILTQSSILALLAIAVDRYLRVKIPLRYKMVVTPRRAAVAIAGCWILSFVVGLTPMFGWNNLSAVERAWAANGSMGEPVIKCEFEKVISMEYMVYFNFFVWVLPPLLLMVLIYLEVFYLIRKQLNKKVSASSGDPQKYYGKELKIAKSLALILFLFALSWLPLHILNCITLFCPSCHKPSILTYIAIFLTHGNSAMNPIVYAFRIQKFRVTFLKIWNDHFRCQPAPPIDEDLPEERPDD
Sequence of human adenosine A2A receptor (P29274 whole entry): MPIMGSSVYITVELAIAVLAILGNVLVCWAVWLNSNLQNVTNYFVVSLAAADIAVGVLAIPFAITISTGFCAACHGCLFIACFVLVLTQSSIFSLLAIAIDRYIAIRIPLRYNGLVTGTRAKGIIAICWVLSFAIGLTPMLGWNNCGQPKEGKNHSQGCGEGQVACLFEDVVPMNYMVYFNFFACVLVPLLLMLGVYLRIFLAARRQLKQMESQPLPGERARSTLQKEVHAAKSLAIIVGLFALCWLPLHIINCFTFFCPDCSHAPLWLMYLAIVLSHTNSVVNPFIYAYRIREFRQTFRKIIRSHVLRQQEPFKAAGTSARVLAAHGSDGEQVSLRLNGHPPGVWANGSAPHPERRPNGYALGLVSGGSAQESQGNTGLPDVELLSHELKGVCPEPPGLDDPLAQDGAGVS

`C[C@@H]1CN(c2c(-c3ccccc3)nc(N)n3c(=O)n(CCC(F)F)nc23)C[C@H](C)O1` [Example 1-3, 5-amino-2-(3,3-difluoropropyl)-8-[(cis)-2,6-dimethylmorpholin-4-yl]-7-phenyl-[1,2,4]triazolo[4,3-c]pyrimidin-3-one]: the “A2A pKi” value in test [1] came out at 7.1. Also, the “A1 pKi” value in test [2] was below 5.4.
Consider `C[C@@H]1CN(c2c(-c3ccc(F)cc3)nc(N)n3c(=O)n(CCC(F)(F)F)nc23)C[C@H](C)O1` [Example 1-5, 5-amino-8-[(cis)-2,6-dimethylmorpholin-4-yl]-7-(4-fluorophenyl)-2-(3,3,3-trifluoropropyl)-[1,2,4]triazolo[4,3-c]pyrimidin-3-one], for which the “A2A pKi” value in test [1] stood at 7.3. The “A1 pKi” value in test [2] is below 5.5.
The matching figures for `CCCn1nc2c(N3C[C@@H](C)O[C@@H](C)C3)c(-c3ccc(F)cc3)nc(N)n2c1=O` [Example 1-6, 5-amino-8-[(cis)-2,6-dimethylmorpholin-4-yl]-7-(4-fluorophenyl)-2-propyl-[1,2,4]triazolo[4,3-c]pyrimidin-3-one]: 6.9 and 6.4.
Take `C[C@@H]1CN(c2c(-c3ccccc3)nc(N)n3c(=O)n(C[C@H]4CCCO4)nc23)C[C@H](C)O1` [Example 1-8, 5-amino-8-[(cis)-2,6-dimethylmorpholin-4-yl]-7-phenyl-2-[[(2R)-tetrahydrofuran-2-yl]methyl]-[1,2,4]triazolo[4,3-c]pyrimidin-3-one]: the IC50 on human CB1 receptor was above 100 µM.
`C[C@@H]1CN(c2c(-c3ccccc3)nc(N)n3c(=O)n(CCN4CCCCC4)nc23)C[C@H](C)O1` [Example 1-9, 5-amino-8-[(cis)-2,6-dimethylmorpholin-4-yl]-7-phenyl-2-[2-(1-piperidyl)ethyl]-[1,2,4]triazolo[4,3-c]pyrimidin-3-one]: in test [1], the “A2A pKi” value is 6.7. Moreover, the “A1 pKi” value in test [2] was below 5.5.
On to `C[C@@H]1CN(c2c(-c3ccccc3)nc(N)n3c(=O)n(C[C@H]4COCCN4)nc23)C[C@H](C)O1` [Example 1-10, 5-amino-8-[(cis)-2,6-dimethylmorpholin-4-yl]-2-[[(3S)-morpholin-3-yl]methyl]-7-phenyl-[1,2,4]triazolo[4,3-c]pyrimidin-3-one], for which the “A2A pKi” value in test [1] turned out to be 6.9. In test [2], the “A1 pKi” value is below 5.4.
Turning to `C[C@@H]1CN(c2c(-c3ccccc3)nc(N)n3c(=O)n(C[C@@H]4COCCN4)nc23)C[C@H](C)O1` [Example 1-11, 5-amino-8-[(cis)-2,6-dimethylmorpholin-4-yl]-2-[[(3R)-morpholin-3-yl]methyl]-7-phenyl-[1,2,4]triazolo[4,3-c]pyrimidin-3-one], the “A2A pKi” value in test [1] is listed as 6.7. Further, the “A1 pKi” value in test [2] is on record as below 5.6.
As to `C[C@@H]1CN(c2c(-c3ccccc3)nc(N)n3c(=O)n(C[C@H]4COCCN4C)nc23)C[C@H](C)O1` [Example 1-12, 5-amino-8-[(cis)-2,6-dimethylmorpholin-4-yl]-2-[[(3S)-4-methylmorpholin-3-yl]methyl]-7-phenyl-[1,2,4]triazolo[4,3-c]pyrimidin-3-one], the “A2A pKi” value in test [1] amounted to 6.9. Further, the “A1 pKi” value in test [2] is below 5.4.
Regarding `C[C@@H]1CN(c2c(-c3ccccc3)nc(N)n3c(=O)n(C[C@@H]4COCCN4C)nc23)C[C@H](C)O1` [Example 1-13, 5-amino-8-[(cis)-2,6-dimethylmorpholin-4-yl]-2-[[(3R)-4-methylmorpholin-3-yl]methyl]-7-phenyl-[1,2,4]triazolo[4,3-c]pyrimidin-3-one], the “A2A pKi” value in test [1] is reported as 7.1. In addition, the “A1 pKi” value in test [2] is on record as below 5.4.
Consider `COc1ncccc1Cn1nc2c(N3C[C@@H](C)O[C@@H](C)C3)c(-c3ccccc3)nc(N)n2c1=O` [Example 1-15, 5-amino-8-[(cis)-2,6-dimethylmorpholin-4-yl]-2-[(2-methoxy-3-pyridyl)methyl]-7-phenyl-[1,2,4]triazolo[4,3-c]pyrimidin-3-one], for which the “A2A pKi” value in test [1] amounted to 8.4. Moreover, the “A1 pKi” value in test [2] was found to be 6.4.
Turning to `C[C@@H]1CN(c2c(-c3ccccc3)nc(N)n3c(=O)n(Cc4cccnn4)nc23)C[C@H](C)O1` [Example 1-16, 5-amino-8-[(cis)-2,6-dimethylmorpholin-4-yl]-7-phenyl-2-(pyridazin-3-ylmethyl)-[1,2,4]triazolo[4,3-c]pyrimidin-3-one], the “A2A pKi” value in test [1] is reported as 7.2. Besides, in test [2], the “A1 pKi” value is reported as 6.1.
The matching figures for `C[C@@H]1CN(c2c(-c3ccccc3)nc(N)n3c(=O)n(CCc4ccccc4)nc23)C[C@H](C)O1` [Example 1-17, 5-amino-8-[(cis)-2,6-dimethylmorpholin-4-yl]-7-phenyl-2-(2-phenylethyl)-[1,2,4]triazolo[4,3-c]pyrimidin-3-one]: 7.2 and below 5.8.
With `C[C@@H]1CC(c2c(-c3ccccc3)nc(N)n3c(=O)n(CCC(F)(F)F)nc23)C[C@H](C)O1` (stereo partly drawn) [Example 2-2, 5-amino-8-[(cis)-2,6-dimethyltetrahydropyran-4-yl]-7-phenyl-2-(3,3,3-trifluoropropyl)-[1,2,4]triazolo[4,3-c]pyrimidin-3-one], the “A2A pKi” value in test [1] is 7.4. For the same compound, in test [2], the “A1 pKi” value is given as below 5.5.
Consider `Cc1cc(-c2c(-c3ccccc3)nc(N)n3c(=O)n(Cc4ccc(F)cn4)nc23)cc(C)c1O` [Example 3-1, 5-amino-2-[(5-fluoro-2-pyridyl)methyl]-8-(4-hydroxy-3,5-dimethyl-phenyl)-7-phenyl-[1,2,4]triazolo[4,3-c]pyrimidin-3-one], for which the IC50 at human CB1 receptor is above 100 µM.
As to `Cc1ccc(Cn2nc3c(-c4cc(C)c5ncoc5c4)c(-c4ccc(F)cc4)nc(N)n3c2=O)nc1` [Example 4-3, 5-amino-7-(4-fluorophenyl)-8-(4-methyl-1,3-benzoxazol-6-yl)-2-[(5-methyl-2-pyridyl)methyl]-[1,2,4]triazolo[4,3-c]pyrimidin-3-one], the “A2A pKi” value in test [1] amounted to 9.8. Further, the “A1 pKi” value in test [2] amounted to 6.9.
Turning to `Cc1ocnc1Cn1nc2c(-c3cc(C)c4ncoc4c3)c(-c3ccccc3)nc(N)n2c1=O` [Example 4-6, 5-amino-8-(4-methyl-1,3-benzoxazol-6-yl)-2-[(5-methyloxazol-4-yl)methyl]-7-phenyl-[1,2,4]triazolo[4,3-c]pyrimidin-3-one], the IC50 on human CB1 receptor came out at 17.9 µM.
As for `Cc1nc(Cn2nc3c(-c4cc(C)c5ncoc5c4)c(-c4ccc(F)cc4)nc(N)n3c2=O)c(C)o1` [Example 4-7, 5-amino-2-[(2,5-dimethyloxazol-4-yl)methyl]-7-(4-fluorophenyl)-8-(4-methyl-1,3-benzoxazol-6-yl)-[1,2,4]triazolo[4,3-c]pyrimidin-3-one], in test [1], the “A2A pKi” value was 9.9. Also, in test [2], the “A1 pKi” value came to 7.7.
For `Cc1ocnc1Cn1nc2c(-c3cc(C)c4[nH]ncc4c3)c(-c3ccc(F)cc3)nc(N)n2c1=O` [Example 4-8, 5-amino-7-(4-fluorophenyl)-8-(7-methyl-1H-indazol-5-yl)-2-[(5-methyloxazol-4-yl)methyl]-[1,2,4]triazolo[4,3-c]pyrimidin-3-one], in that order: 9.6 and 8.4.
For `[2H]c1c([2H])c([2H])c(-c2nc(N)n3c(=O)n(Cc4ncoc4C)nc3c2-c2cc(C)c3[nH]ncc3c2)c([2H])c1[2H]` [Example 4-10, 5-amino-8-(7-methyl-1H-indazol-5-yl)-2-[(5-methyloxazol-4-yl)methyl]-7-(2,3,4,5,6-pentadeuteriophenyl)-[1,2,4]triazolo[4,3-c]pyrimidin-3-one], in that order: 10.0 and 8.7.

Usually IC50 stands for the midpoint of a concentration-inhibition curve.
